A short description of this series: Human HepG2 cell viability assay in 384 well format. The class given is toxicity, cell-based. Set-up: dose 125 nL, time 70.5 hour; concentration not given beside the values. The following applies: HepG2 cells, read-out: Inhibition.
For the compound `COCCNC(=O)c1sc(Nc2ccc(Cl)cn2)nc1C`, the cytotoxicity at 70.5 h is -13.2%.

Turning to `Cc1cc(NCCCNS(C)(=O)=O)nc2ccccc12`, the cytotoxicity at 70.5 h came to 2.5%.

Regarding `Cc1nn(C)c(C)c1-c1ccc(=O)n(C(C)C(=O)NC2CCCCC2)n1` (stereo not drawn), the cytotoxicity at 70.5 h is -17.2%.

Regarding `COCCCN1C(=O)CC[C@H]2CN(c3cnc4ccccc4n3)CC[C@H]21`, the cytotoxicity at 70.5 h worked out at 25%.

For the compound `CC(=O)N1CCc2ccccc2C1CC(=O)NCc1nnc(C)o1` (stereo not drawn), the cytotoxicity at 70.5 h was 27.7%.

For the compound `CCOCC(=O)NCC1Cn2nnc(-c3cccc(F)c3)c2CO1` (stereo not drawn), the cytotoxicity at 70.5 h was -4.09%.

As to `Cc1c(C(=O)NCC2CCN(Cc3ccco3)C2)[nH]c2ccccc12` (stereo not drawn), the cytotoxicity at 70.5 h is -5.18%.

On to `O=C(CCc1ccsc1)NCC1CCN(c2ccccc2)C1` (stereo not drawn), for which the cytotoxicity at 70.5 h stood at 2.35%.

For the compound `COCC1CCN(C(=O)c2cc(-c3ccco3)nc3c(Cl)cccc23)C1` (stereo not drawn), the cytotoxicity at 70.5 h is -20.7%.

As for `O=C(C1CCCC1)N1C[C@@H]2CCN(c3cnccn3)C[C@@H]2C1`, the cytotoxicity at 70.5 h is -1.88%.

For `CCc1nc(NC(=O)Cc2csc(-c3nnc[nH]3)n2)sc1C`, the cytotoxicity at 70.5 h was -11.9%.

For the compound `C[C@@H]1CN(C(=O)C2CCS(=O)(=O)CC2)CC[C@@]1(O)C1CCOCC1`, the cytotoxicity at 70.5 h is -11%.

Regarding `Cc1cc(=O)[nH]cc1C(=O)N1CCN(C)c2ccccc2C1`, the cytotoxicity at 70.5 h is -0.391%.

Take `Cc1ccc(-c2nc(C(=O)N(C)CC(=O)N(C)C)cs2)c(C)c1`: the cytotoxicity at 70.5 h amounted to 20.9%.

Turning to `Cn1cc(CN2CCC(CCC(=O)Nc3ccccc3Cl)CC2)cn1`, the cytotoxicity at 70.5 h was 4.76%.

For the compound `CCNc1ncc(C(=O)Nc2nnc(N3CCCCC3)[nH]2)s1`, the cytotoxicity at 70.5 h was -2.41%.

Take `Cc1cc(C)nc(N2CCC(C(=O)Nc3n[nH]c(CC(C)C)n3)CC2)n1`: the cytotoxicity at 70.5 h was -12%.

As to `O=C(NCC1CC1)c1ccc(NC(=O)c2ccco2)cc1`, the cytotoxicity at 70.5 h is -5.31%.

Take `Cc1ccc(C(O)CNC(=O)CCCc2ccccn2)o1` (stereo not drawn): the cytotoxicity at 70.5 h was -8.17%.

With `O=C(CN1C(=O)CCNC1=O)N1CCC(c2ccc(F)cc2)C1` (stereo not drawn), the cytotoxicity at 70.5 h was -5.75%.

With `CC(C)(C)c1noc(CCCC(=O)N2CCNC(=O)CC2)n1`, the cytotoxicity at 70.5 h was -6.5%.

Consider `CCc1ncncc1C(=O)N1CCCN(Cc2ccccc2C)CC1`, for which the cytotoxicity at 70.5 h is -8.2%.

Turning to `Cc1ccc(CNC(=O)N2CCc3ccccc3C2CO)s1` (stereo not drawn), the cytotoxicity at 70.5 h is -5.32%.

As for `COc1cc(Oc2ncccc2C(F)(F)F)ccc1CN1CCCC1`, the cytotoxicity at 70.5 h is 4.5%.

`C=C(C)CN1CCCC(NS(C)(=O)=O)C1` (stereo not drawn): the cytotoxicity at 70.5 h was -5.08%.

Turning to `CCCN(Cc1cnn(C)c1)S(=O)(=O)c1cccc(F)c1C#N`, the cytotoxicity at 70.5 h is -2.96%.

On to `CN(Cc1ccsc1)C(=O)Nc1ccc(N2CCCC2)nc1`, for which the cytotoxicity at 70.5 h stood at 0.563%.

For `O=C(CC1CCC2(CC1)CCN(Cc1nccs1)CC2)N1CC=CC1`, the cytotoxicity at 70.5 h was -3.04%.

Take `Cc1ccc(C(C(=O)NCCc2nc(C)cc(C)n2)N(C)C)cc1` (stereo not drawn): the cytotoxicity at 70.5 h was -4.39%.

With `CC(=O)Nc1nc(C(=O)NCCOc2cccc(F)c2)cs1`, the cytotoxicity at 70.5 h is -17.7%.

On to `CCN(C)S(=O)(=O)N1CCCC1CC(=O)c1cccs1` (stereo not drawn), for which the cytotoxicity at 70.5 h came out at 32.3%.

With `CC(C)Oc1ncccc1CNC(=O)c1cnccn1`, the cytotoxicity at 70.5 h was -5.94%.

For the compound `O[C@@H]1CN(Cc2ccc(F)cc2)CC[C@H]1NCc1ccccn1`, the cytotoxicity at 70.5 h was 15.4%.

For `Cn1ccnc1CN1CCC2(CC1)CC(N1CCCC1)c1ccccc12` (stereo not drawn), the cytotoxicity at 70.5 h is -4.57%.

Turning to `COc1ccc(C(C(=O)O)N(C)CCN2CCCC2)c(C)c1` (stereo not drawn), the cytotoxicity at 70.5 h came out at 24%.

Regarding `CS(=O)(=O)C1CCN(S(=O)(=O)Cc2cccc(F)c2)CC1`, the cytotoxicity at 70.5 h worked out at 0.12%.

As for `C=C(C)COc1cccc(C(=O)N(C)C(C)c2ccncn2)c1` (stereo not drawn), the cytotoxicity at 70.5 h was -7.56%.

As to `COC[C@H]1CCC[C@]12CN(C(=O)NCc1ccccc1)CCO2`, the cytotoxicity at 70.5 h was -16.8%.

In the case of `Cn1cc(CN2CCCC3(CCN(Cc4ccncc4)C3=O)C2)cn1` (stereo not drawn), the cytotoxicity at 70.5 h was -10.1%.

For the compound `CC(C#N)CN(C)C(=O)CCNC(=O)C(C)(C)C` (stereo not drawn), the cytotoxicity at 70.5 h is 0.0301%.

Regarding `O=C(c1ccc(S(=O)(=O)NCC(F)F)cc1)N1CC[C@H]2CNC[C@H]21`, the cytotoxicity at 70.5 h stood at 0.673%.

For the compound `CNC(=O)COc1ccccc1CNC1CCc2ncnn2C1` (stereo not drawn), the cytotoxicity at 70.5 h was determined as 29.2%.

With `CN(C)C(=O)[C@H]1CO[C@H]2CCN(c3ncc(F)cn3)C[C@H]2C1`, the cytotoxicity at 70.5 h is -8.69%.

Consider `O=C(Cc1ccco1)N1C[C@H]2CCC[C@@]2(COc2cccnc2)C1`, for which the cytotoxicity at 70.5 h is -5.14%.

On to `N#Cc1cnn(CCN2CCOC(CNc3cccnn3)C2)c1` (stereo not drawn), for which the cytotoxicity at 70.5 h amounted to 4.89%.

With `Cc1ccc(N2CC[C@H]3OCC[C@@]3(C(=O)NCC3CC3)C2)nn1`, the cytotoxicity at 70.5 h was -7.61%.

As for `CN(Cc1ccc(F)c(F)c1)C(=O)CCc1nc(-c2nnc[nH]2)no1`, the cytotoxicity at 70.5 h is -4.47%.

On to `COCCOc1ccc(NC(=O)C2CC(=O)N(CC3CC3)C2)cn1` (stereo not drawn), for which the cytotoxicity at 70.5 h turned out to be 19.3%.

With `Cc1nc(CN(C)C2CCCN(c3cccnn3)C2)oc1C` (stereo not drawn), the cytotoxicity at 70.5 h stood at 3.03%.

For the compound `CN(Cc1ccncc1)C1CC2(CCN(C(=O)c3ccnnc3)CC2)C1`, the cytotoxicity at 70.5 h is -9.02%.

In the case of `CS(=O)(=O)N1C[C@@H]2CC[C@H](C1)N(C(=O)CCn1cnc3ccccc31)C2`, the cytotoxicity at 70.5 h worked out at 18.3%.

With `CCn1ccnc1CN1CCC(N(Cc2ncc(C)o2)C(C)=O)C1` (stereo not drawn), the cytotoxicity at 70.5 h worked out at 4.91%.

Turning to `Cc1ccc(S(=O)(=O)NC2CNC(=O)C2)cc1C` (stereo not drawn), the cytotoxicity at 70.5 h came out at 0.672%.

For `COCCCNC(=O)CN(C)C(=O)c1cc(C)sc1C`, the cytotoxicity at 70.5 h is -14%.

Turning to `CS(=O)(=O)N1CCOC2(CCN(c3ncccn3)CC2)c2ccccc21`, the cytotoxicity at 70.5 h is -1.05%.

As to `CN(CCS(C)(=O)=O)C1CCCN(Cc2noc(C3CC3)n2)C1` (stereo not drawn), the cytotoxicity at 70.5 h is 17.9%.

For `CC1CCN(S(=O)(=O)N2C[C@H](c3ccccc3)[C@@H](N)C2)CC1`, the cytotoxicity at 70.5 h came to 27.7%.

Turning to `NC(=O)Cc1csc(NC(=O)C2CSCCC(=O)N2)n1` (stereo not drawn), the cytotoxicity at 70.5 h was found to be 1.67%.

Take `O=C1CC[C@H]2[C@H](CCN2Cc2ccccn2)N1CC1CCOCC1`: the cytotoxicity at 70.5 h is -6.68%.

As for `Cc1nc(C)n(CC2CN(Cc3cccc(C#N)c3)CCO2)n1` (stereo not drawn), the cytotoxicity at 70.5 h was -24.6%.

Consider `CN(Cc1ccco1)C(=O)C1=NN(C)C(=O)CC1`, for which the cytotoxicity at 70.5 h is -3.82%.

`O=C(COC[C@H]1CC[C@H]2[C@H](CCN2c2ncccn2)O1)N1CCCC1`: the cytotoxicity at 70.5 h is -3.63%.

For `CC[C@H]1CN(C(=O)c2cnc(N3CCN(C)CC3)nc2C)CC[C@@]1(C)O`, the cytotoxicity at 70.5 h was -7.86%.

As to `NC(=O)N1CCC(C(=O)NCc2nncn2-c2ccccc2)CC1`, the cytotoxicity at 70.5 h came to 1.01%.

In the case of `Cc1nc(C)n(C2CCCN(C(=O)c3ccc(NC4CC4)nc3)C2)n1` (stereo not drawn), the cytotoxicity at 70.5 h was -6.49%.

Take `Cc1ccccc1CN(C)C(C(N)=O)c1ccccc1` (stereo not drawn): the cytotoxicity at 70.5 h was -16.6%.

Take `O=C1CCCCCN1Cc1cccc(OC(F)F)c1`: the cytotoxicity at 70.5 h was -5.05%.

For `CNS(=O)(=O)c1ccc(CN2CCCN(CC(C)C)CC2)cc1`, the cytotoxicity at 70.5 h was -0.0493%.

Turning to `COCCN1CCCC(Cc2ccc(N3CCOCC3)nn2)C1` (stereo not drawn), the cytotoxicity at 70.5 h is -7.53%.

Regarding `CN1CCN(C(=O)CCn2c(C(F)(F)F)cc3cccnc32)CC1`, the cytotoxicity at 70.5 h amounted to 34.4%.

Regarding `O=C(NCC(O)c1cccc(F)c1)c1sccc1OC(F)F` (stereo not drawn), the cytotoxicity at 70.5 h is -3.42%.

Turning to `Cc1ncsc1CN1CC[C@](C)(O)[C@@H](Oc2cccc(F)c2)C1`, the cytotoxicity at 70.5 h is -3.09%.

Turning to `Cn1ncc(NCc2cccc(F)c2)c(Cl)c1=O`, the cytotoxicity at 70.5 h is -13.3%.

On to `Cn1c(N)nnc1SCc1ccc(Cl)cc1Br`, for which the cytotoxicity at 70.5 h was -11.2%.

As for `O=C(O)c1cnc(N2CC[C@H](N3CCOCC3)[C@H](CCCO)C2)c(Cl)c1`, the cytotoxicity at 70.5 h is -7.02%.

Turning to `CCN(C)CC(=O)N1CCCC(c2nnc(CN3CCOCC3)n2C)C1` (stereo not drawn), the cytotoxicity at 70.5 h was -4.67%.

As for `Cn1c(N2CCOCC2)nc2cc(C(=O)N3CCC(O)(CO)C3)ccc21` (stereo not drawn), the cytotoxicity at 70.5 h is -2.61%.

As for `O=C(Cn1cnc(NC(=O)CC2CCCC2)n1)NCc1ccccc1`, the cytotoxicity at 70.5 h is 1.33%.

Turning to `Cc1cccc(CN2CCC3(CC(C(=O)NCC(C)C)=NO3)C2)c1` (stereo not drawn), the cytotoxicity at 70.5 h was -5.06%.

As for `Cc1cc(C(=O)NCC2Cn3nnc(C)c3CO2)no1` (stereo not drawn), the cytotoxicity at 70.5 h was -7.19%.

Turning to `Cc1nc(CN2C[C@@H]3CN(C(=O)C4CC4)C[C@@H]3C2=O)cs1`, the cytotoxicity at 70.5 h came to 27.3%.

As for `Cc1cc(C(=O)NC2CCCOc3cc(Cl)ccc32)n(C)n1` (stereo not drawn), the cytotoxicity at 70.5 h is -5.69%.

Regarding `Cc1nn(C)c2nc(N3CCCCC3c3cccnc3)sc12` (stereo not drawn), the cytotoxicity at 70.5 h was -4.09%.

As for `CC(Cc1ccc(Cl)cc1)NC(=O)Nc1cnn(CC(N)=O)c1` (stereo not drawn), the cytotoxicity at 70.5 h was -8.4%.

`Cc1ccc(C(=O)N2CCOc3nc(C)ccc32)c(F)c1`: the cytotoxicity at 70.5 h worked out at 26.7%.

As to `CC1CCCN(c2ccc(C(N)=O)cc2NC(=O)CC2=CCNCC2)C1` (stereo not drawn), the cytotoxicity at 70.5 h is -17.5%.

As to `COc1ccc(CCN)cc1-c1ccc(S(C)(=O)=O)cc1`, the cytotoxicity at 70.5 h was -8.83%.

With `O=C1COC2(CCN(c3ccccn3)CC2)CN1Cc1ccccn1`, the cytotoxicity at 70.5 h worked out at 17.6%.

On to `O=C(CCCNC(=O)NCC1CCCO1)Nc1ccc(Cl)cc1` (stereo not drawn), for which the cytotoxicity at 70.5 h is -8.55%.

Turning to `CCn1cc(-c2cc(-c3ccn(C)c3)nc(N)c2C#N)cc1C#N`, the cytotoxicity at 70.5 h is 5.48%.

Consider `CC(=O)N1CCN(Cc2ccco2)CC2(CC(=O)N(C)C2)C1` (stereo not drawn), for which the cytotoxicity at 70.5 h came to 20.7%.

Turning to `COCC1CN(Cc2ccc(C)o2)Cc2cn(C)nc21` (stereo not drawn), the cytotoxicity at 70.5 h was determined as 3.14%.

Consider `CCc1cc(NCCc2cc(F)cc(F)c2)n2nccc2n1`, for which the cytotoxicity at 70.5 h was -2.57%.

`COc1ccccc1C(O)Cn1cc(C(=O)NCC2CC2)nn1` (stereo not drawn): the cytotoxicity at 70.5 h is -2.27%.

Take `COCCN1CCC(c2nc3cc(C)ccc3[nH]2)CC1`: the cytotoxicity at 70.5 h is -8.34%.

In the case of `O=C(Cn1cnnn1)Nc1ccc(F)cc1OCC1CC1`, the cytotoxicity at 70.5 h is -13.9%.

Regarding `CN(Cc1ccccc1Cl)C(=O)c1cc(CN2CCC(O)CC2)on1`, the cytotoxicity at 70.5 h is -17.3%.

With `Cc1c(C(=O)N2CCC3(CCC(=O)N(CCN(C)C)C3)CC2)ccn1C`, the cytotoxicity at 70.5 h amounted to 0.579%.

These data come from ChEMBL document CHEMBL3507680, “University of Dundee, Gates Library screen for HepG2 cell viability”.
